Test results reported in patent publication US9682928B2 (NeuroPro Therapeutics, Inc., priority 2009, dated 2017).
Like-named read-outs stand apart in the source and are kept apart here.

How the values were obtained:
Sprague-Dawley rats = assay: Kainic acid induced seizures in rats; format: in vivo, rat; parameters: key to Seizures Severity Mean ± SD (grade 0 to IV): seizure grade 0 = no response to IV = status epilepticus; conditions: 20 μmoles/kg IP; for Seizures Severity Mean ± SD (grade 0 to IV) / Seizures Mean ± SD (1 = yes, 0 = no): KA 15 mg/kg i.p.; for Seizures Mean ± SD (1 = yes, 0 = no): 2 hours; for change in vivo at 20 µmol/kg: Rattus norvegicus, 2 h, vs DMSO control
Method: Formulation of kainic acid was performed by NTS as a stock solution by reconstituting kainic acid with (100%) saline that was stored at 4° C. Vehicle control received saline solution. […] The research investigators were blinded to the treatment groups.
Solutions were prepared fresh daily just prior to use; dosing of all 10 rats with any given compound occurred on a single day after preparing the dosing solution. […] Unused remaining dosing solutions were stored frozen.
Animals were maintained in a temperature- and light-controlled environment in accord with the principles and procedures of the National Institutes of Health Guidelines for Care and Use of Laboratory Animals. Seizures were induced in adult, male Sprague-Dawley rats (260-300 g) by injection of KA (15 mg/kg, i.p.). In addition, animals were injected with test compounds following kainic acid to determine the effects on protection from epilepsy. Animals were monitored behaviorally for seizures for 2 hours after injection.
Seizure activity was initially characterized as either yes (1) or no (0) within a 2 hour period following injection of KA. A seizure severity grade was assigned based on the maximal response achieved on a scale from 0 to IV as follows: 0, no response; I, single limb clonus and scratching; II, multiple limb clonus and staggering gait; […], limb clonus, tonic extension of limbs and falling; IV, continuous grade III seizures for longer than 30 min (status epilepticus).
The results were expressed as the mean±standard deviation (SD). The significance of difference in the epileptic data was analyzed using a one-way analysis of variance (ANOVA) followed by Fisher's post hoc test. Repeated-measures ANOVA were computed on the monitoring data and the significance of the difference among groups were evaluated by Fisher's post hoc test.
All groups were subjected to kainic acid.
The induction of seizures in rats with kainic acid was determined as either yes seizures (1) or no seizures (0).

Na+K+Cl− co-transporter = biological target: T1, Na+K+Cl− co-transporter (Rattus norvegicus, UniProt E9PTX9); assay: Na+K+Cl− cotransporter assay, 86Rb uptake in A7r5 cells; format: cell-based; conditions: 10 minutes at 37° C.; for inhibition at 10 µM: read-out: % Inhibition of Control Values; for remaining activity at 10 µM: read-out: % of Control Value; for % Inhibition of Control Values / % of Control Value: 10 μM
T1 construct: endogenous in cells; host or cells: A7r5 cells
T1 sequence (E9PTX9 1-1203): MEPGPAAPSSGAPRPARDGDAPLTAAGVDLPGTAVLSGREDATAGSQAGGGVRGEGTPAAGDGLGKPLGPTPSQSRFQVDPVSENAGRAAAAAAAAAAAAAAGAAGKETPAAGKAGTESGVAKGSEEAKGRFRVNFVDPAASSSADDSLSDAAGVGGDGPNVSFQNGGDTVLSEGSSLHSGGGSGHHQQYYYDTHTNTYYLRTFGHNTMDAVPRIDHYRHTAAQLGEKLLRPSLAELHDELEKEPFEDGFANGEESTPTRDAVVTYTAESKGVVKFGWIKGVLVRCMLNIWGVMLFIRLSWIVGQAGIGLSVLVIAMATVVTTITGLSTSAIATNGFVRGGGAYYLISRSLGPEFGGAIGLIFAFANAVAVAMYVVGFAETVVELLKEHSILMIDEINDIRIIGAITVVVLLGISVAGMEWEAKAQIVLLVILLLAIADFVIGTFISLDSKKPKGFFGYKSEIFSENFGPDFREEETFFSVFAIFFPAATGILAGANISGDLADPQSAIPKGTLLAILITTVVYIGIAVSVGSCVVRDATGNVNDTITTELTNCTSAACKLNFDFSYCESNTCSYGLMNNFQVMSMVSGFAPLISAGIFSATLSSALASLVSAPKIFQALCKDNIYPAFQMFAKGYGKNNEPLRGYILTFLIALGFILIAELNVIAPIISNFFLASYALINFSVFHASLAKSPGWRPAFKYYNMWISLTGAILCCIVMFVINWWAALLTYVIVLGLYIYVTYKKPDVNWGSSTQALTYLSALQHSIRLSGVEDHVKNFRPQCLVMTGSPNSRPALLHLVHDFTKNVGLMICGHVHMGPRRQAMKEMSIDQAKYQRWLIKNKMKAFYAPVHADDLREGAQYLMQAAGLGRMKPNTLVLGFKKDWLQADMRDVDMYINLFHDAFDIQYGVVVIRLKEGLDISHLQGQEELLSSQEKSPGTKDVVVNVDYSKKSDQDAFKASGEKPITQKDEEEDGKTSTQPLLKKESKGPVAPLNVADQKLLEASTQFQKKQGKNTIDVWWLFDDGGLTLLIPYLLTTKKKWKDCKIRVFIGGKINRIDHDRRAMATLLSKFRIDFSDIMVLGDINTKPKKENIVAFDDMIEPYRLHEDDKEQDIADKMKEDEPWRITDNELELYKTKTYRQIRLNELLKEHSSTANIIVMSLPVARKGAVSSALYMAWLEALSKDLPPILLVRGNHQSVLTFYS
Method: Na^+K^+Cl^− co-transporter activity was measured in vitro in A7r5 cells by measuring their uptake of ^86Rb (0.2 μCi) in 10 minutes at 37° C. as detected by scintillation counting. See Chassande, et al. (1988) “The Na^+/K^+/Cl^− Cotransport in C6 glioma cells. Properties and role in volume regulation.” Eur. J. Biochem. 171: 425433.

[1] = read-out: Percent reduction in Seizures
[2] = read-out: Percent reduction in Seizures Severity

SMILES | % Inhibition of Control Values (Na+K+Cl− co-transporter) [%] | % of Control Value (Na+K+Cl− co-transporter) [%] | also measured
OC[C@@H](O)[C@@H](O)[C@H](O)[C@H](O)CO [Mannitol, reference compound] |  |  | Seizures Severity Mean ± SD (grade 0 to IV) (Sprague-Dawley rats): 0.5000 ± 0.7071; Seizures Mean ± SD (1 = yes, 0 = no) (Sprague-Dawley rats): 0.4000 ± 0.5164; change in vivo at 20 µmol/kg (Sprague-Dawley rats; [1]): -55.5%; change in vivo at 20 µmol/kg (Sprague-Dawley rats; [2]): -79.2%
CCCCNc1cc(C(=O)N(CC)CC)cc(S(N)(=O)=O)c1Oc1ccccc1 [NTP-2007, N,N-Diethyl 3-Aminosulfonyl-5-butylamino-4-phenoxybenzamide] |  |  | Seizures Severity Mean ± SD (grade 0 to IV) (Sprague-Dawley rats): 1.500 ± 1.354; Seizures Mean ± SD (1 = yes, 0 = no) (Sprague-Dawley rats): 0.6000 ± 0.5164; change in vivo at 20 µmol/kg (Sprague-Dawley rats; [1]): -33.3%; change in vivo at 20 µmol/kg (Sprague-Dawley rats; [2]): -37.5%; inhibition at 10 µM (Na+K+Cl− co-transporter): 30%; remaining activity at 10 µM (Na+K+Cl− co-transporter): 70.4%
CCCCNc1cc(C(=O)N(C)C)cc(S(N)(=O)=O)c1Oc1ccccc1 [NTP-2015, N,N-Dimethyl 3-Aminosulfonyl-5-N-butylamino-4-phenoxybenzamide] |  |  | Seizures Severity Mean ± SD (grade 0 to IV) (Sprague-Dawley rats): 1.100 ± 1.197; Seizures Mean ± SD (1 = yes, 0 = no) (Sprague-Dawley rats): 0.5000 ± 0.5270; change in vivo at 20 µmol/kg (Sprague-Dawley rats; [1]): -44.4%; change in vivo at 20 µmol/kg (Sprague-Dawley rats; [2]): -54.2%
CCCCNc1cc(C(=O)NC)cc(S(N)(=O)=O)c1Oc1ccccc1 [NTP-2016, N-Methyl 3-Aminosulfonyl-5-N-butylamino-4-phenoxybenzamide] | −7 | 107.2 | 
CCCCNc1cc(C(=O)NCc2ccccc2)cc(S(N)(=O)=O)c1Oc1ccccc1 [NTP-2018, N-Benzyl 3-Aminosulfonyl-5-N-butylamino-4-phenoxybenzamide] | 13 | 87.3 | 
CCCCNc1cc(C(=O)N[C@H](C)c2ccccc2)cc(S(N)(=O)=O)c1Oc1ccccc1 [NTP-2020, (R)-α-Methylbenzyl 3-Aminosulfonyl-5-N-butylamino-4-phenoxybenzamide] | 7 | 93.5 | 
CCCCNc1cc(C(=O)N[C@@H](C)c2ccccc2)cc(S(N)(=O)=O)c1Oc1ccccc1 [NTP-2021, (S)-α-Methylbenzyl 3-Aminosulfonyl-5-N-butylamino-4-phenoxybenzamide] | 27 | 72.6 | 
CCCCNc1cc(C(=O)N2CCCC2)cc(S(N)(=O)=O)c1Oc1ccccc1 [NTP-2022, N-Pyrrolidinyl Aminosulfonyl-5-N-butylamino-4-phenoxybenzamide] |  |  | Seizures Severity Mean ± SD (grade 0 to IV) (Sprague-Dawley rats): 1.100 ± 1.101; Seizures Mean ± SD (1 = yes, 0 = no) (Sprague-Dawley rats): 0.6000 ± 0.5164; change in vivo at 20 µmol/kg (Sprague-Dawley rats; [1]): -33.3%; change in vivo at 20 µmol/kg (Sprague-Dawley rats; [2]): -54.2%; inhibition at 10 µM (Na+K+Cl− co-transporter): 7%; remaining activity at 10 µM (Na+K+Cl− co-transporter): 92.7%
CCCCNc1cc(C(=O)NN2CCCCC2)cc(S(N)(=O)=O)c1Oc1ccccc1 [NTP-2023, N-Piperidinyl 3-Aminosulfonyl-5-N-butylamino-4-phenoxybenzamide] | 23 | 77.3 | 
CCCCNc1cc(C(=O)NCCCN(C)C)cc(S(N)(=O)=O)c1Oc1ccccc1 [NTP-2025] |  |  | inhibition at 10 µM (Na+K+Cl− co-transporter): -27%; remaining activity at 10 µM (Na+K+Cl− co-transporter): 127%
CCCCCCCCCCOC(=O)c1cc(NCCCC)c(Oc2ccccc2)c(S(N)(=O)=O)c1 [NTP-2028, n-Decyl Aminosulfonyl-5-N-butylamino-4-phenoxybenzoate] | 16 | 84.4 | 
CCCCNc1cc(C(=O)OCC=C(C)C)cc(S(N)(=O)=O)c1Oc1ccccc1 [NTP-2029, 3-Methylbut-2-enyl Aminosulfonyl-5-N-butylamino-4-phenoxybenzoate] | 12 | 88.4 | 
CCCCNc1cc(C(=O)OCc2ccc(OC)cc2)cc(S(N)(=O)=O)c1Oc1ccccc1 [NTP-2031, 4-Methoxybenzyl Aminosulfonyl-5-N-butylamino-4-phenoxybenzoate] | 7 | 92.6 | 
CCCCNc1cc(C(=O)OCCCCc2ccccc2)cc(S(N)(=O)=O)c1Oc1ccccc1 [NTP-2034, 4-phenylbutyl 3-Aminosulfonyl-5-N-butylamino-4-phenoxybenzoate] | 21 | 78.9 | 
CCCCNc1cc(C(=O)O[C@H](C)c2ccccc2)cc(S(N)(=O)=O)c1Oc1ccccc1 [NTP-2035, (R)-α-Methylbenzyl 3-Aminosulfonyl-5-N-butylamino-4-phenoxybenzoate] | 26 | 74.5 | 
CCCCNc1cc(C(=O)O[C@@H](C)c2ccccc2)cc(S(N)(=O)=O)c1Oc1ccccc1 [NTP-2036, (S)-α-Methylbenzyl 3-Aminosulfonyl-5-N-butylamino-4-phenoxybenzoate] | 20 | 80.1 | 
